{"source": "paper PMC5289526", "about": "“Crystal Structure and Catalytic Mechanism of CouO, a Versatile C-Methyltransferase from Streptomyces rishiriensis” (PLoS ONE, 2017)", "target": "T1, CouO (Streptomyces rishiriensis, UniProt Q9F8T9)", "T1 construct": "recombinant from E. coli; pET26b-CouO template, pMS470 vector in E. coli TOP10F' for activity assays", "T1 sequence (Q9F8T9 whole entry)": "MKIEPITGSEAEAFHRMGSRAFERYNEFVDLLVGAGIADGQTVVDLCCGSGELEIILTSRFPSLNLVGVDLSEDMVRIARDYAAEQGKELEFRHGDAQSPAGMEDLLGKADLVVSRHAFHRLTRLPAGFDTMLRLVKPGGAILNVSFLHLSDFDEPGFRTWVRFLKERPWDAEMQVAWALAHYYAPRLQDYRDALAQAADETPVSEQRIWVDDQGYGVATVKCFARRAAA", "experiment": "X-ray crystal structure, […] Å", "format": "binding", "conditions": "one SAH in each of two chains; cofactor site"}
{"smiles": "Nc1ncnc2c1ncn2[C@@H]1O[C@H](CSCC[C@H](N)C(=O)O)[C@@H](O)[C@H]1O", "note": "[SAH]", "values": [{"measurement": "X-ray crystal structure, 2.05 Å", "result": "one SAH cofactor molecule was present in each chain"}]}
